Consider one substance from article PMC7555312, “Functional Characterization of Temporin-SHe, a New Broad-Spectrum Antibacterial and Leishmanicidal Temporin-SH Paralog from the Sahara Frog (Pelophylax saharicus)” (International Journal of Molecular Sciences, 2020).

Test [1] deals with E. coli ATCC 25922. Nature of the test: Time-killing assay. Type of test: cell-based, Escherichia coli. The conditions noted are these: two-fold MIC (50 µM temporin-SHe), 10^6 cfu/mL in PBS, plate counting. How it is done:
(§1) Aliquots were withdrawn at different times and spread onto LB agar plates for cell counting after overnight incubation at 37 °C. Controls corresponding to the bacterial suspensions without peptide were also run. Two independent experiments were performed in triplicate. Results were expressed as the mean ± S.D. of a representative experiment.

Test [2] concerns E. coli ATCC 25922. Type of test: cell-based, Escherichia coli.
Experimental: (§5) Antimicrobial activity was assessed with a liquid growth inhibition assay performed according to a previously described protocol [14] using the Clinical and Laboratory Standards Institute (CLSI) guidelines. Briefly, in 96-well microtitration plates, mid-log-phase bacteria diluted to 10^6 CFU/mL in Mueller–Hinton (MH) broth were added to different concentrations of synthetic temporin-SHe (1–200 µM, final concentrations) and incubated at 37 °C for 18–20 h, under shaking (150 rpm). For E. faecalis, L. ivanovii and yeasts/fungi, 10^6 CFU/mL suspensions were prepared in LB broth, brain heart infusion (BHI) medium and Yeast Peptone Dextrose (YPD) medium, respectively, and incubation was performed at 30 °C for yeasts/fungi. […] MIC values represent the average of three independent experiments, each performed in triplicate with negative (no peptide) and positive (formaldehyde 0.7%) controls.
The subject of test [3] is L. braziliensis promastigotes (strain MHOM/BR/75/M2904). Type of test: cell-based, Leishmania braziliensis. The following applies: 72 h, 26 °C. How it is done:
(§2) Antileishmanial activity of temporin-SHe was analyzed by a luminescence-based growth inhibition method using Leishmania promastigotes transfected with the vector pGMαNEOαLUC containing the gene LUC that codes for the firefly luciferase, cultured at 26 °C in SDM-79 medium supplemented with 10% fetal calf serum (Gibco), as previously described. Mid-log-phase promastigotes (1.25 × 10^6 cells/mL) were added in 96-well plates containing different concentrations of synthetic temporin-SHe (3.125–50 µM, final concentrations), and incubated 72 h at 26 °C. […] IC50 was determined with GraphPad Prism® 6.0 software (GraphPad Software, La Jolla, CA, USA) using a sigmoidal dose–response curve fitting equation.

For test [4], the system named is L. infantum promastigotes (strain MHOM/MA/67/ITMAP-263). The test is classed as cell-based, Leishmania infantum. The conditions noted are these: 72 h, 26 °C. How it is done: as §2
Test [5] has as its system S. enterica (serotype Enteritidis). How it is done:
(§3) Antibacterial activity of temporin-SHe was evaluated against Gram-positive bacteria including S. aureus strains (ATCC 25923, ST1065), antibiotic-resistant S. aureus strains (ATCC 43300, ATCC BAA-44), E. faecalis (ATCC 29212), B. megaterium, and L. ivanovii (Li4pVS2), and Gram-negative bacteria including E. coli strains (ATCC 25922, ATCC 35218, ML-35p), S. enterica (serotype Enteritidis), P. aeruginosa (ATCC 27853), A. baumannii (ATCC 19606) and K. pneumoniae (ATCC 13883). Antifungal activity was evaluated against C. albicans (ATCC 90028), C. parapsilosis (ATCC 22019) and S. cerevisiae. ATCC strains were purchased from American-Type Culture Collection (ATCC, Virginia, VA, USA). Antiparasitic activity was determined against promastigotes of several species of Leishmania responsible for visceral, cutaneous and mucocutaneous leishmaniases: L. infantum (strain MHOM/MA/67/ITMAP-263), L. major (strain MHOM/SU/73/5-ASKH), and L. braziliensis (strain MHOM/BR/75/M2904), respectively. Cytotoxicity was assessed against human red blood cells and THP-1 monocytes. Peripheral blood was obtained from healthy adult donors (Établissement Français du Sang, Paris, France). All donors signed informed consent allowing the use of their blood for research purposes.
(§4) Antimicrobial activity was assessed with a liquid growth inhibition assay performed according to a previously described protocol using the Clinical and Laboratory Standards Institute (CLSI) guidelines. Briefly, in 96-well microtitration plates, mid-log-phase bacteria diluted to 10^6 CFU/mL in Mueller–Hinton (MH) broth were added to different concentrations of synthetic temporin-SHe (1–200 µM, final concentrations) and incubated at 37 °C for 18–20 h, under shaking (150 rpm). For E. faecalis, L. ivanovii and yeasts/fungi, 10^6 CFU/mL suspensions were prepared in LB broth, brain heart infusion (BHI) medium and Yeast Peptone Dextrose (YPD) medium, respectively, and incubation was performed at 30 °C for yeasts/fungi. […] MIC values represent the average of three independent experiments, each performed in triplicate with negative (no peptide) and positive (formaldehyde 0.7%) controls.

The test system of test [6] is all tested Gram-positive bacteria. The following applies: range over all tested Gram-positive bacteria. How it is done: as §3, §4
The subject of test [7] is S. aureus ATCC BAA-44. How it is done: as §3, §4
Test [8] deals with L. ivanovii (Li4pVS2). The following applies: liquid growth inhibition (CLSI), 10^6 CFU/mL in brain heart infusion (BHI) medium, 37 °C, 18–20 h, OD 630 nm; mean of three independent experiments in triplicate. How it is done:
as §3, §4

Test [9] concerns L. major promastigotes (strain MHOM/SU/73/5-ASKH). Type of test: cell-based, Leishmania major. The following applies: 72 h, 26 °C. How it is done: as §2
For test [10], the system named is E. faecalis ATCC 29212. The test is classed as cell-based, Enterococcus faecalis.
Experimental: as §5
Test [11] relates to S. aureus ST1065. Nature of the test: Time-killing assay. The test is classed as cell-based, Staphylococcus aureus. The following applies: two-fold MIC (6.25 µM temporin-SHe), 10^6 cfu/mL in PBS, plate counting. How it is done: as §1
Test [12] concerns C. albicans ATCC 90028. Type of test: cell-based, Candida albicans.
Experimental: as §5
Test [13] deals with C. parapsilosis ATCC 22019. The test is classed as cell-based, Candida parapsilosis.
Experimental: as §5
Test [14] deals with E. coli ATCC 35218. Type of test: cell-based, Escherichia coli.
Experimental: as §5
Test [15] relates to S. aureus ATCC 25923. The test is classed as cell-based, Staphylococcus aureus.
Experimental: as §5
The test system of test [16] is K. pneumoniae ATCC 13883. The test is classed as cell-based, Klebsiella pneumoniae.
Experimental: as §5
Test [17] relates to S. cerevisiae. Type of test: cell-based, Saccharomyces cerevisiae.
Experimental: as §5
In test [18] the test system is E. coli ML-35p. The test is classed as cell-based, Escherichia coli. The following applies: liquid growth inhibition (CLSI), 10^6 CFU/mL in MH broth, 37 °C, 18–20 h, OD 630 nm; mean of three independent experiments in triplicate.
Experimental: as §5
[19] abbreviates: luciferase-expressing promastigotes 1.25 × 10^6 cells/mL, Steady-Glo, mean of three independent experiments in triplicate.
The mark [20] stands for this setting: peptide 12.5 µM, promastigotes, mean of three independent assays in triplicates.

Where no end group is shown, it is not given here. Some results are limits rather than exact numbers.

In general, MIC refers to the least concentration at which growth counts as inhibited. Read a high MIC as a less susceptible organism. In general, IC50 refers to the concentration at which inhibition is half-maximal. For FLPALAGIAGLLGKIF-NH2 [Temporin-SHe], the “time to total killing” value in [1] was determined as 90 min. The MIC in test [2] is 25 µM; in test [5] it was 100 µM; in test [7], 3.12 µM; in test [8], 5 µM; in [10], 12.5 µM; in test [12], >100 µM. In addition, the MIC in test [13] stood at 50 µM; in [14], 50 µM; in test [15] it was 3.12 µM; in [16], 100 µM; in [17], 12.5 µM; in test [18], 50 µM. Moreover, the IC50 in test [3] (setting [19]) turned out to be 10.5 µM; in [4] (setting [19]) it was 4.6 µM; in test [9] (setting [19]) it was 11.6 µM. For the same substance, the “Leishmania growth inhibition (L. braziliensis)” value in [3] (setting [20]) turned out to be 87%. Further, the “inhibition of L. infantum growth” value in [4] (peptide 3.12 µM, promastigotes, mean of three independent assays in triplicates) was found to be 42%. In [6], this substance showed an MIC range of 1.56 to 12.5 µM. Besides, the “Leishmania growth inhibition (L. major)” value in test [9] (setting [20]) is 85%. For the same substance, in test [11], the “time to complete killing” value was ≤ 5 min.
